Test results from ChEMBL document CHEMBL1129748, “Structure-activity relationships of 4-hydroxy-3-nitroquinolin-2(1H)-ones as novel antagonists at the glycine site of N-methyl-D-aspartate receptors” (J Med Chem, 1996).

Experiments:
Glutamate NMDA receptor [1] = experiment: Inhibition of [3H]DCKA binding to NMDA receptor of rat brain membranes.; type: cell membranes, Membrane
[2] = Compound was tested for steady-state selectivity index for inhibition at NMDA receptor glycine sites was estimated by dividing Kb AMPA by Kb glycine.; type: functional
Glutamate NMDA receptor [3] = experiment: Compound was tested for inhibition of [3H]DCKA binding to NMDA receptor of rat brain membranes; type: cell membranes, Membrane
[4] = target: T1, Glutamate receptor ionotropic, AMPA (Rattus norvegicus) (UniProt P19491+P19492+P19493+P19490); experiment: Compound was tested for inhibition of AMPA receptors was measured in oocytes expressing rat cerebral cortex poly(A)+ RNA.(Three cells were examined ); type: functional, cell-based; conditions: Oocyte
[5] = Compound was tested for steady-state selectivity index for inhibition at NMDAreceptor glycine sites was estimated by dividing Kb AMPA by Kb glycine.; type: functional
[6] = target: T1, Glutamate receptor ionotropic, AMPA (Rattus norvegicus); experiment: Compound was tested for inhibition of AMPA receptors was measured in oocytes expressing rat cerebral cortex poly(A)+ RNA.(Three cells were examined); type: functional, cell-based; conditions: Oocyte

| IC50 (Glutamate NMDA receptor [1]) | Compound | also measured |
| --- | --- | --- |
| 3.3 µM | O=Nc1c(O)c2c(F)c(F)c(F)c(F)c2[nH]c1=O | – |
| 61 µM | O=[N+]([O-])c1c(O)nc2cccc(Cl)c2c1O | – |
| > 100 µM | O=[N+]([O-])c1c(O)nc2c(F)c(F)c(F)c(F)c2c1O | – |
| 0.033 µM | O=Nc1c(O)c2c(Cl)cc(Cl)cc2[nH]c1=O | – |
| 0.037 µM | Cc1cc(C)c2c(O)c(N=O)c(=O)[nH]c2c1 | – |
| 4.4 µM | O=Nc1c(O)nc2cccc(Cl)c2c1O | – |
| 0.29 µM | Cc1cc(C)c2c(O)c([N+](=O)[O-])c(O)nc2c1 | Selectivity [2]: 164 |
| 0.4 µM | O=[N+]([O-])c1c(O)nc2cc(Cl)c(Cl)cc2c1O | – |
| 0.28 µM | Oc1nc2cc(Cl)cc(Cl)c2nc1O | – |
| 40 µM | O=[N+]([O-])c1c(O)nc2c(F)c(Cl)c(F)cc2c1O | – |
| 0.13 µM | Oc1nc2cc(Cl)c(Cl)cc2nc1O [2,3-DIHYDROXY-6,7-DICHLOROQUINOXALINE] | – |
| 0.053 µM | O=Nc1c(O)nc2cc(Cl)ccc2c1O | – |
| 0.91 µM | O=Nc1c(O)c2cc(F)c(Cl)c(F)c2[nH]c1=O | – |
| – | O=[N+]([O-])c1c(O)nc2cc(Cl)ccc2c1O | IC50 (Glutamate NMDA receptor [3]): 1.5 µM |
| 0.22 µM | O=[N+]([O-])c1c(O)nc2cc(Cl)c(Cl)c(Cl)c2c1O | Kb [4]: 19 µM; Selectivity [5]: 240 |
| 0.012 µM | O=Nc1c(O)nc2cc(Cl)c(Cl)cc2c1O | – |

| IC50 (Glutamate NMDA receptor [1]) | Compound | also measured |
| --- | --- | --- |
| > 100 µM | O=[N+]([O-])c1c(O)nc2c(Cl)c(Cl)c(Cl)cc2c1O | – |
| 0.73 µM | O=c1[nH]c2c(F)c(F)c(F)c(F)c2[nH]c1=O | – |
| 1.8 µM | O=c1[nH]c2ccc(Cl)cc2[nH]c1=O | – |
| 0.03 µM | Oc1nc2cc(Cl)c(Cl)c(Cl)c2nc1O | – |
| > 100 µM | O=[N+]([O-])c1c(O)nc2c(Cl)cccc2c1O | – |
| 9.8 µM | Oc1nc2ccccc2nc1O | – |
| 3.4 µM | O=Nc1c(O)c2cc(Cl)ccc2[nH]c1=O | – |
| 1.4 µM | O=Nc1c(O)nc2ccccc2c1O | – |
| > 100 µM | O=[N+]([O-])c1c(O)nc2ccc(Cl)cc2c1O | – |
| 0.007 µM | O=Nc1c(O)nc2cc(Cl)c(Cl)c(Cl)c2c1O | – |
| 34 µM | O=[N+]([O-])c1c(O)nc2ccccc2c1O | – |
| > 100 µM | O=Nc1c(O)nc2c(Cl)cccc2c1O | – |
| 0.63 µM | Oc1nc2cc(F)c(Cl)c(F)c2nc1O | – |
| 2.1 µM | Cc1cc(C)c2nc(O)c(O)nc2c1 | – |
| 0.22 µM | O=[N+]([O-])c1c(O)nc2cc(Cl)cc(Cl)c2c1O | Selectivity [2]: 118; Kb [6]: 37 µM |
